The values that follow come from patent publication US6077840A, “Tetrahydrobenzindolone derivatives” (Meiji Seika Kaisha, Ltd., priority 1996, dated 2000).

Broadly, the IC50 is the midpoint of a concentration-inhibition curve.

One data set addresses T1, progesterone receptor (Sus scrofa, UniProt D0EWS6).
T1 construct: thereby preparing a cytosol containing progesterone receptor; from tissue; host or cells: hog uterus, cytosol (100,000×g supernatant)
T1 sequence (D0EWS6 1-934): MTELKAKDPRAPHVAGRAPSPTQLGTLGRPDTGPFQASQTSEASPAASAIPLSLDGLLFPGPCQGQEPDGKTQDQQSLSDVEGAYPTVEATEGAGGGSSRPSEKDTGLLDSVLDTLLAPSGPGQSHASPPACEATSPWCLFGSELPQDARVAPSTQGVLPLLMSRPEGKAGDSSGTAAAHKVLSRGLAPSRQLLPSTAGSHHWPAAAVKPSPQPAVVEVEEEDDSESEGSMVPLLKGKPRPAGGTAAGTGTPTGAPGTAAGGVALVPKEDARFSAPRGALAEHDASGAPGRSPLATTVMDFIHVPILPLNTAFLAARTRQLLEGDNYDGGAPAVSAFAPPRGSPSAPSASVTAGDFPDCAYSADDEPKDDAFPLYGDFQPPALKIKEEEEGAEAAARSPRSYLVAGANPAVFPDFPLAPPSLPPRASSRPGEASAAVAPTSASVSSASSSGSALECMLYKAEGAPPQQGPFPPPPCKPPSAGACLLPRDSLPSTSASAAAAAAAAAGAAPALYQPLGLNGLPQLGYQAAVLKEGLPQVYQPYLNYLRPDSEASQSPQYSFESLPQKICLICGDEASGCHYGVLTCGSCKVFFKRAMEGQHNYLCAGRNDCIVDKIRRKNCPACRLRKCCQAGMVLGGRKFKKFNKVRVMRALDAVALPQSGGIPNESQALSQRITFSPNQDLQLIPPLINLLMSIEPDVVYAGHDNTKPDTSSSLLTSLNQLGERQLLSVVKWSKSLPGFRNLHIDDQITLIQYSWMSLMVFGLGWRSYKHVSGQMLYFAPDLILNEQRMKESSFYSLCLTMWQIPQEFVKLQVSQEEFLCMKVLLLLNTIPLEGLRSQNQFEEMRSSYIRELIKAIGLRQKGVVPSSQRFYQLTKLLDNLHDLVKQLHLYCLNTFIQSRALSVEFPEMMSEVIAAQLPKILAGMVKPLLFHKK
In words: progesterone receptor binding inhibition ([^3 H]-progesterone, hog uterus cytosol). Also on record: species or system hogs. Particulars: [^3 H]-progesterone ligand, 60 min at 4° C., read-out: Inhibitory activity against progesterone receptor binding (IC50). As for the experimental part:
Uteri taken from hogs in 5 mM phosphate buffer were disrupted using Polytron homogenizer, and the resulting solution was centrifuged (100,000×g, 30 min) to separate the supernatant, thereby preparing a cytosol containing progesterone receptor. […] Then, 100 μl of a 0.5% activated carbon solution was added to the reaction solution, and the mixture was allowed to stand for 10 min and then centrifuged (2,000×g, 10 min). The radioactivity of the supernatant was measured with a liquid scintillation counter.
Separately, the radioactivity was measured in the same manner as described above, except that no test drug was added. Further, the radioactivity was measured in the same manner as described above, except that 10 μl of Medroxyprogesterone Acetate (MPA) (10 μg/ml) was added instead of the test drug. The radioactivity with no test drug added was defined as the amount of total binding of [^3 H]-progesterone to the cytosol, and the radioactivity with MPA added was defined as the amount of non-specific binding. The inhibition ratio was calculated from these measured values by the following equation to determine the binding inhibitory activity (IC50).
Inhibition ratio (%)= [formula]

Data set [1] can be described thus: Test on Toxicity upon Continuous Administration. It is filed as in vivo. The note with it: 60 mg/kg, subcutaneous, 16 week-old male SD rats (five). As to the method: A homogeneous suspension of the compound, according to the present invention, prepared in Example 8 in a 0.2% aqueous methyl cellulose solution was subcutaneously administered to 16 week-old male SD rats (five rats). The dose of the compound prepared in Example 8 was 60 mg/kg.

Turning to `CC1=C2C[C@@]3(C)C(=CC[C@H](OC(=O)n4ccnc4)[C@@H]3C)C=C2N(C)C1=O` [Example 115, (4aR,5R,6S)-6-(Imidazol-1-ylcarbonyloxy)-4a,5,6,7-tetrahydro-1,3,4a,5-tetramethylbenz[f]indol-2(4H)-one], the IC50 on progesterone receptor came to 22 nM. `CCS[C@@H]1C=C2C=C3C(=C(C)C(=O)N3C)C[C@]2(C)[C@@H](C)[C@H]1O` [Example 100, (4aR,5R,6R,7R)-7-Ethylthio-6-hydroxy-4a,5,6,7-tetrahydro-1,3,4a,5-tetramethrlbenz[f]indol-2(4H)-one]: the IC50 on progesterone receptor came out at 119 nM. Still for that read-out and setting: the result for `CO[C@H]1[C@H](OC)C=C2C=C3C(=C(C)C(=O)N3C)C[C@]2(C)[C@H]1C` [Example 34, (4aR,5R,6R,7R)-6,7-Dimethoxy-4a,5,6,7-tetrahydro-1,3,4a,5-tetramethylbenz[f]indol-2(4H)-one] reads 42 nM; that for `CO[C@@H]1C=C2C=C3C(=C(C)C(=O)N3C)C[C@]2(C)[C@@H](C)[C@H]1OC(C)=O` [Example 25, (4aR,5R,6R,7R)-6-Acetoxy-7-methoxy-4a,5,6,7-tetrahydro-1,3,4a,5-tetramethylbenz[f]indol-2(4H)-one], 25 nM; that for `CS[C@@H]1C=C2C=C3C(=C(C)C(=O)N3C)C[C@]2(C)[C@@H](C)[C@H]1OC(=O)n1ccnc1` [Example 99, (4aR,5R,6R,7R)-6-(Imidazol-1-ylcarbonyloxy)-7-methylthio-4a,5,6,7-tetrahydro-1,3,4a,5-tetramethylbenz[f]indol-2(4H)-one], 66 nM.

Take `CCC(=O)O[C@H]1CC=C2C=C3C(=C(C)C(=O)N3C)C[C@]2(C)[C@H]1C` [Example 113, (4aR,5R,6S)-6-Propionyloxy-4a,5,6,7-tetrahydro-1,3,4a,5-tetramethylbenz[f]indol-2(4H)-one]: the IC50 at progesterone receptor came to 99 nM. The same measure, in the same setting: the result for `CCCNC(=O)O[C@H]1CC=C2C=C3C(=C(C)C(=O)N3C)C[C@]2(C)[C@H]1C` [Example 116, (4aR,5R,6S)-6-Propylcarbamoyloxy-4a,5,6,7-tetrahydro-1,3,4a,5-tetramethylbenz[f]indol-2(4H)-one] reads 19 nM. On to `CC(=O)O[C@@H]1C=C2C=C3C(=C(C)C(=O)N3C)C[C@]2(C)[C@@H](C)[C@H]1OC(=O)c1ccco1` [Example 4, (4aR,5R,6R,7R)-7-Acetoxy-6-(2-furancarbonyloxy)-4a,5,6,7-tetrahydro-1,3,4a,5-tetramethylbenz[f]indol-2(4H)-one], for which the IC50 on progesterone receptor came to 32 nM. On the same count and under the same terms, the result for `CCC(=O)O[C@H]1[C@H](SC)C=C2C=C3C(=C(C)C(=O)N3C)C[C@]2(C)[C@H]1C` [Example 97, (4aR,5R,6R,7R)-7-Methylthio-6-propionyloxy-4a,5,6,7-tetrahydro-1,3,4a,5-tetramethylbenz[f]indol-2(4H)-one] reads 64 nM. For `CCC(=O)O[C@H]1[C@H](OC)C=C2C=C3C(=C(C)C(=O)N3C)C[C@]2(C)[C@H]1C` [Example 26, (4aR,5R,6R,7R)-7-Methoxy-6-propionyloxy-4a,5,6,7-tetrahydro-1,3,4a,5-tetramethylbenz[f]indol-2(4H)-one], on progesterone receptor, the IC50 was determined as 17 nM. Consider `CCC(=O)O[C@H]1[C@H](OC(C)=O)C=C2C=C3C(=C(C)C(=O)N3C)C[C@]2(C)[C@H]1C` [Example 3, (4aR,5R,6R,7R)-7-Acetoxy-6-propionyloxy-4a,5,6,7-tetrahydro-1,3,4a,5-tetramethylbenz[f]indol-2(4H)-one], for which the IC50 on progesterone receptor turned out to be 28 nM.

For `CCS[C@@H]1C=C2C=C3C(=C(C)C(=O)N3C)C[C@]2(C)[C@@H](C)[C@H]1OC(=O)CC` [Example 101, (4aR,5R,6R,7R)-7-Ethylthio-6-propionyloxy-4a,5,6,7-tetrahydro-1,3,4a,5-tetramethylbenz[f]indol-2(4H)-one], at progesterone receptor, the IC50 turned out to be 164 nM. Consider `CCO[C@H]1[C@H](OC)C=C2C=C3C(=C(C)C(=O)N3C)C[C@]2(C)[C@H]1C` [Example 35, (4aR,5R,6R,7R)-6-Ethoxy-7-methoxy-4a,5,6,7-tetrahydro-1,3,4a,5-tetramethylbenz[f]indol-2(4H)-one], for which the IC50 at progesterone receptor stood at 36 nM. On the same count and under the same terms, the result for `CO[C@@H]1C=C2C=C3C(=C(C)C(=O)N3C)C[C@]2(C)[C@@H](C)[C@H]1OC(=O)c1ccco1` [Example 32, (4aR,5R,6R,7R)-6-(2-Furancarbonyloxy)-7-methoxy-4a,5,6,7-tetrahydro-1,3,4a,5-tetramethylbenz[f]indol-2(4H)-one] reads 27 nM; that for `CCCNC(=O)O[C@H]1[C@H](SCC)C=C2C=C3C(=C(C)C(=O)N3C)C[C@]2(C)[C@H]1C` [Example 107, (4aR,5R,6R,7R)-7-Ethylthio-6-propylcarbamoyloxy-4a,5,6,7-tetrahydro-1,3,4a,5-tetramethylbenz[f]indol-2(4H)-one], 156 nM. On to `CCS[C@@H]1C=C2C=C3C(=C(C)C(=O)N3C)C[C@]2(C)[C@@H](C)[C@H]1OC(=O)n1ccnc1` [Example 106, (4aR,5R,6R,7R)-7-Ethylthio-6-(imidazol-1-ylcarbonyloxy)-4a,5,6,7-tetrahydro-1,3,4a,5-tetramethylbenz[f]indol-2(4H)-one], for which, on progesterone receptor, the IC50 was found to be 137 nM. Still for that read-out and setting: to `CO[C@@H]1C=C2C=C3C(=C(C)C(=O)N3C)C[C@]2(C)[C@@H](C)[C@H]1OC(=O)c1cccs1` [Example 31, (4aR,5R,6R,7R)-7-Methoxy-4a,5,6,7-tetrahydro-1,3,4a,5-tetramethyl-6-(2-thiophenecarbonyloxy)benz[f]indol-2(4H)-one] belongs 47 nM. For `CCC(=O)O[C@H]1[C@H](OC(=O)CC)C=C2C=C3C(=C(C)C(=O)N3C)C[C@]2(C)[C@H]1C` [Example 8, (4aR,5R,6R,7R)-6,7-Dipropionyloxy-4a,5,6,7-tetrahydro-1,3,4a,5-tetramethylbenz[f]indol-2(4H)-one], in data set [1], the special symptoms result was “without no special symptom” and the survival of rats entry is listed as “All the rats remained survived”. As to `CCCO[C@H]1[C@H](OC)C=C2C=C3C(=C(C)C(=O)N3C)C[C@]2(C)[C@H]1C` [Example 36, (4aR,5R,6R,7R)-7-Methoxy-6-propoxy-4a,5,6,7-tetrahydro-1,3,4a,5-tetramethylbenz[f]indol-2(4H)-one], at progesterone receptor, the IC50 worked out at 51 nM.

Consider `C=CCO[C@H]1[C@H](OC)C=C2C=C3C(=C(C)C(=O)N3C)C[C@]2(C)[C@H]1C` [Example 41, (4aR,5R,6R,7R)-7-Methoxy-6-(2-propenyloxy)-4a,5,6,7-tetrahydro-1,3,4a,5-tetramethylbenz[f]indol-2(4H)-one], for which the IC50 on progesterone receptor was found to be 44 nM.

Take `CC1=C2C[C@@]3(C)C(=CC[C@H](OC(=O)N4CCCC4)[C@@H]3C)C=C2N(C)C1=O` [Example 117, (4aR,5R,6S)-6-(Pyrrolidin-1-ylcarbonyloxy)-4a,5,6,7-tetrahydro-1,3,4a,5-tetramethylbenz[f]indol-2(4H)-one]: on progesterone receptor, the IC50 amounted to 31 nM. On the same count and under the same terms, to `CCS[C@@H]1C=C2C=C3C(=C(C)C(=O)N3C)C[C@]2(C)[C@@H](C)[C@H]1OC(=O)N1CCCC1` [Example 108, (4aR,5R,6R,7R)-7-Ethylthio-6-(pyrrolidin-1-ylcarbonyloxy)-4a,5,6,7-tetrahydro-1,3,4a,5-tetramethylbenz[f]indol-2(4H)-one] belongs 155 nM.
